Results on 5 compounds are retold here after patent publication US4540708A, “Sulfenyl carbamate derivatives and insecticidal compositions containing the same” (priority 1982, dated 1985).

In series [1] the test system is mites, eelworms and other agricultural and forestry noxious insects and household noxious insects. Particulars: known compounds, background; cited from earlier work.
Series [2] has as its system warm-blooded animals. Particulars: known compounds, background; cited from earlier work.
Series [3] has as its system tobacco cutworm (Spodoptera litura). In words: Test Example 1: mortality of third-instar larvae of tobacco cutworm on cabbage, 3 days. Particulars: 72 h. It counts as in vivo. The method, then:
Ten third-instar larvae of tobacco cutworm (Spodoptera litura) were placed on a cabbage (one-month-old seedling) planted in a pot, and a 50% emulsion of the compound to be tested was diluted to a specified concentration and applied to the leaves of the plant to fully wet them. The test compound of each specified concentration was tested on two pots.

Series [4] concerns green rice leafhopper (Nephotettix cincticeps). The series is described as follows: Test Example 2: mortality of female adults of green rice leafhopper on paddy rice, 3 days. The class given is in vivo. The following applies: 72 h. The method, then:
An emulsion of specified concentration was prepared from a 50% wettable powder of the compound to be tested and applied to the leaves of paddy rice (one-month-old seedlings) planted in a pot to fully wet the leaves. After the emulsion had been dried, the pot was covered with a net cage, into which 10 female adults of green rice leafhopper (Nephotettix cincticeps) were released. The compound of each specified concentration was tested on two pots.

The nature of series [5]: Test Example 4: acute toxicity by oral administration in male mice (Litchfield-Wilcoxon). Further details: unit not given here. The following applies: mouse, in vivo, mortality on the seventh day. The method, then: Compounds of this invention were tested on male mice for acute toxicity by oral administration.

In the case of `CNC(=O)Oc1cccc2c1OC(C)(C)C2` [Control 1, 2,3dihydro-2,2-dimethylbenzofuran-7-yl-N--methylcarbamate], in series [1], the “insecticidal activity (in words)” value is “high insecticidal activity”. In addition, the “toxicity to warm-blooded animals (in words)” value in series [2] is listed as “high toxicity to warm-blooded animals”.

The mortality is the percentage killed. For the compound `COCCN(CC#N)SN(C)C(=O)Oc1cccc2c1OC(C)(C)C2` [Example 5], in series [3], the mortality at 125 ppm came out at 50%, the mortality at 250 ppm is 70%, the mortality at 500 ppm is 80% and the mortality at 1000 ppm came to 90%. In addition, in series [4], the mortality at 200 ppm came to 70%, the mortality at 400 ppm worked out at 90% and the mortality at 800 ppm stood at 100%. Besides, the LD50 at 168 h in series [5] worked out at 68000.

Consider `COCCN(CCC#N)SN(C)C(=O)Oc1cccc2c1OC(C)(C)C2` [Example 2, 2,3-dihydro-2,2-dimethylbenzofuran-7-yl N-[N-(2-methoxyethyl)-N-cyanoethylaminosulfenyl]N-methyl-carbamate], for which, in series [3], the mortality at 125 ppm is 40%, the mortality at 250 ppm worked out at 55%, the mortality at 500 ppm stood at 70% and the mortality at 1000 ppm turned out to be 85%. In series [4], this compound returned a mortality at 200 ppm of 65%, a mortality at 400 ppm of 85% and a mortality at 800 ppm of 100%. The compound also came in with an LD50 at 168 h in series [5] of 98000.

For `COCCN(CC(=O)OC)SN(C)C(=O)Oc1cccc2c1OC(C)(C)C2` [Example 4], in series [3], the mortality at 125 ppm turned out to be 45%, the mortality at 250 ppm was 65%, the mortality at 500 ppm amounted to 80% and the mortality at 1000 ppm was 90%. Further, in series [4], the mortality at 200 ppm amounted to 75%, the mortality at 400 ppm was determined as 95% and the mortality at 800 ppm amounted to 100%. The same compound displayed an LD50 at 168 h in series [5] of 90000.

As for `CNC(=O)ON=C(C)SC` [Control*, S--methyl N--[(methylcarbamoyl)oxy]thioacetimidate], the “toxicity to warm-blooded animals (in words)” value in series [2] was “high toxicity to warm-blooded animals”.
